Experimental data reported in patent US20240050406A1, “COMPOSITION COMPRISING OXIRACETAM FOR PREVENTING OR TREATING MUSCULAR DISEASE” (KSB TUGEN INC., priority 2021, published 2024).

How the values were obtained:
[1] = system: animal model in which muscular atrophy is induced by dexamethasone; test: Comparison with dementia drugs in dexamethasone muscular atrophy model (Experimental Example 5); type: in vivo, ICR mice
Description: For an experimental group in the present invention, oxiracetam having a structure of Formula 1 was purchased from Tokyo Chemical Industry (Japan; Product No. 00398, CAS RN:62613-82-5, purity: 96%) and used. Mirtazapine and olanzapine were purchased from Tokyo Chemical Industry (Japan, Product Nos. M2151, 00393, purity: 96%) and used.
As experimental animals, 7-week-old male ICR mice were purchased and used. Until the day of the experiment, general feed (EEGJ30060: Cargill Agri Purina, Seongnam, Korea) and water were sufficiently supplied to the experimental animals, and the animals were acclimated for 1 week under an environment of a temperature of 23±2° C., a humidity of 55±10%, and a light-dark cycle of 12 hours-12 hours and used in the experiment.
After the acclimation period for the experimental animals, to create a muscular atrophy model, the mice were randomly divided into groups of 7 animals, such as a control (vehicle, n=7), a dexamethasone-treated group (n=7), and a drug-administered group (n=7). The groups except for the control were intraperitoneally injected dexamethasone at a dose of 10 mg/kg from day 7 to day 21 for 14 days. In the case of the drug-administered group, 7 days before the intraperitoneal administration of dexamethasone, the drug was orally administered using a Zonde needle at a dose of 30 or 10 mg/kg/day once a day for 21 days. During the same period, the control was administered no drug, and 100 μL of normal saline was orally administered at a time. To the dexamethasone-treated group (dexamethasone excipient, CMC), instead of the drug, 100 μL of a 0.5% carboxymethylcellulose (CMC) solution was administered. This is to set the effect on the excipient as a blank.
To measure grip strength, a grip strength test was performed. The maximum force presented when the forelimbs of an animal model of each group could no longer hold the rod by pulling the tail horizontally while holding the tail of the animal model and holding the rod of a device with both front paws was considered to be grip strength (N). Grip strength adaptation training was performed at least three times before drug administration. After measurement before drug administration (day 0) and on day 20 after drug administration began, grip strength variation (%) after drug administration began (day 20) with respect to that before drug administration (day 0) was calculated.
The lean body mass of the gastrocnemius muscle (GS) and the lean body mass of the tibialis anterior (TA) for each group were measured every 7 days. Specifically, animal models of each group were anesthetized using 3% isoflurane, fixed to a photographing bed and then photographed. During photographing, the respiratory rates and body temperatures of the animal models were measured with an animal monitoring system (SA Instruments, USA).
The whole body of the animal model was photographed through dual energy X-ray absorptiometry (DEXA) using iNSiGHT VET DXA (Osteosys, KR), and the lean body mass of each of the gastrocnemius muscle (GS) and the tibialis anterior (TA) was measured and calculated from the two-dimensional images of the gastrocnemius muscle (GS) and the tibialis anterior (TA) by a program using the region of interest (ROI).
Statistical processing was performed using GraphPad Prism (GraphPad Software Inc., San Diego, CA, USA). The results of each repeated experiment were expressed as mean±standard error of mean, and analyzed using the analysis of variance (Tukey's test), and statistical significance was acknowledged when the P-value was 0.05 or less.

C2C12 myotubes = test: Myotube diameter in TNF-α muscular atrophy cell model (Experimental Example 7); type: cell-based, mouse
Protocol: A mouse-derived C2C12 cell line was provided from the American Type Culture Collection (ATCC, CRL-1772; Manassas, VA, USA) and cultured at 37° C. in 5% CO2. In the proliferation phase of the cells before differentiation, high concentration glucose Dulbecco's modified Eagle's medium (DMEM) containing 1% penicillin/streptomycin and 10% fetal bovine serum (FBS) medium were used, and in the differentiation induction, the FBS medium was replaced with a 2% horse serum (HS)-containing medium. The C2C12 myoblasts were seeded into a 96 well culture plate and a 6 well culture plate at 2×10^5/well and 5×10^3/well, respectively, and cultured at 37° C. in a CO2 incubator. When the confluency reached approximately 90%, the medium was replaced with 2% horse serum (HS)-containing DMEM to induce differentiation of myoblasts. After 5 days, the C2C12 myotubes that had differentiated were treated with 10 ng/ml TNF-α, which is an inflammatory factor, for 48 hours to cause myotube atrophy, thereby creating a muscular atrophy cell model, TNF-α-treated group (TNF-α). During the TNF-α treatment, 10 μM oxiracetam was treated to create an oxiracetam-treated group (Oxiracetam 10 μM), cells that were not treated during the same period were prepared as a control. Two days after TNF-α and oxiracetam treatment, each of the TNF-α-treated group (TNF-α), the oxiracetam-treated group (Oxiracetam 10 μM) and the control was treated with an ATP detection reagent at room temperature, and then luminescence was measured using a mitochondrial ToxGlo™ assay kit (Promega). In addition, the TNF-α-treated group (TNF-α), the oxiracetam-treated group (Oxiracetam 10 μM) and the control were photographed using an optical microscope and the diameter of a myotube cell in each group were measured and compared. Statistical processing was performed using GraphPad Prism (GraphPad Software Inc., San Diego, CA, USA).

[2] = oxiracetam 30, mirtazapine 10, olanzapine 10 mg/kg/day oral 21 days + dexamethasone, DEXA every 7 days

Structure (SMILES): NC(=O)CN1CC(O)CC1=O (racemic) [oxiracetam, (RS)-2-(4-hydroxy-2-oxopyrrolidin-1-yl)acetamide]
- change in grip strength ([1]; oxiracetam 30, mirtazapine 10, olanzapine 10 mg/kg/day oral 21 days + dexamethasone 10 mg/kg i.p. day 7-21): significantly recovers
- lean body mass of the gastrocnemius muscle (GS) [1, 2]: significantly recovers
- lean body mass of the tibialis anterior (TA) [1, 2]: significantly recovers
- diameter of a myotube (C2C12 myotubes; TNF-α 10 ng/ml 48 h + oxiracetam 10 μM, compared to TNF-α-treated group): significant increase
- diameter of a myotube relative to control (C2C12 myotubes; TNF-α 10 ng/ml 48 h with oxiracetam 10 μM or 0 μM, relative to non-treated control): recovers to a level similar to the control
